The target in one assay is MOR (Homo sapiens, UniProt P35372). The experiment in a line: GloSensor assay at MOR. It is filed as cell-based. As to conditions: given as Log IC50 (negative values).
The next assay concerns the target DOR (Homo sapiens, UniProt P41143). Nature of the assay: GloSensor assay at DOR. As to conditions: given as Log IC50 (negative values). The assay is classed as cell-based.
For assay [1], the target named is T1, human KOR (Homo sapiens, UniProt P41145). The experiment in a line: GloSensor assay, Gi-mediated cAMP inhibition in HEK-293T cells transfected with human KOR.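 As to agonist at KOR (pIC50): value taken from a statement in the text not a table.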 It is filed as cell-based. Conditions: for G-Protein Bias factor (IC50 -Glosensor/- EC50 - Tango): KOR, GloSensor versus Tango.
Target sequence in this assay (P41145 whole entry): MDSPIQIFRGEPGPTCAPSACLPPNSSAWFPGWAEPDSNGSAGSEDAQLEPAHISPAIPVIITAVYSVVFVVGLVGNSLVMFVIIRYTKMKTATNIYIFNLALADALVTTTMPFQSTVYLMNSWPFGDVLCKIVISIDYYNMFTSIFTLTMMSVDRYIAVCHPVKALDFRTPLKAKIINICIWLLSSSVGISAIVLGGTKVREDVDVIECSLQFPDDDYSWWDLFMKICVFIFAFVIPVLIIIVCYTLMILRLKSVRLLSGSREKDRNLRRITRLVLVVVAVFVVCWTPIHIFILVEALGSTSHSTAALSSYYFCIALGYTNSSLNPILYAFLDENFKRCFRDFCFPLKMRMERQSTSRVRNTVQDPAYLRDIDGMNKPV
Assay [2] addresses T1, human KOR. Nature of the assay: β-arrestin2 Tango assay in HTLA cells transiently transfected with human KOR. The assay is classed as cell-based. Conditions: Table 2, KOR; for EC50: read-out: B-arrestin Tango Assay (pEC50) (converted).
Target sequence in this assay (P41145 whole entry, added parts left off): as the sequence (P41145 whole entry) above
The test system of assay [3] is paclitaxel (PTX)-treated mice. The experiment in a line: Paclitaxel-induced peripheral neuropathy model. The assay is classed as in vivo. As to conditions: 8abd 5 and 10 mg/kg p.o.; duloxetine 10 mg/kg; 16 days.
Setting [4] is: Table 2, KOR, read-out: GloSensor Assay (pIC50) (converted).
Where [5] appears, read: given as Log IC50 (negative values), agonist activity, inhibition of FSK-stimulated cAMP, read-out: GloSensor Assay (Log IC50) KOR (converted).
Setting [6] is: read-out: agonist at KOR (pIC50) (converted).

From US20250368645A1, “BETA CARBOLINE ANALOGUES AS SELECTIVE AND BIASED KAPPA OPIOID RECEPTORS AGONISTS FOR TREATING VARIOUS ASSOCIATED PATHOPHYSIOLOGICAL CONDITIONS” (COUNCIL OF SCIENTIFIC AND INDUSTRIAL RESEARCH, priority 2022, published 2025) come the findings set out here.

Where two headings read alike, the source gives them in different places.

DOR, sequence (P41143 whole entry): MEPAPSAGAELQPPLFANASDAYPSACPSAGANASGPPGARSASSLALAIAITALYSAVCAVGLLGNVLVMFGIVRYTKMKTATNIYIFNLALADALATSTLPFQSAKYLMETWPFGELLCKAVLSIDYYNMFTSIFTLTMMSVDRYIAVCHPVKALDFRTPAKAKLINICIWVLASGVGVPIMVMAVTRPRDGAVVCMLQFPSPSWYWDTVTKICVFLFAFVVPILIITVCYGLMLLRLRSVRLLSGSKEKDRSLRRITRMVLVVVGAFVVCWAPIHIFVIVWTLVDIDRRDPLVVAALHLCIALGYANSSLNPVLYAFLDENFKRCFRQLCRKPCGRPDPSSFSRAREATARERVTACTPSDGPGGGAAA
MOR, sequence (P35372 whole entry): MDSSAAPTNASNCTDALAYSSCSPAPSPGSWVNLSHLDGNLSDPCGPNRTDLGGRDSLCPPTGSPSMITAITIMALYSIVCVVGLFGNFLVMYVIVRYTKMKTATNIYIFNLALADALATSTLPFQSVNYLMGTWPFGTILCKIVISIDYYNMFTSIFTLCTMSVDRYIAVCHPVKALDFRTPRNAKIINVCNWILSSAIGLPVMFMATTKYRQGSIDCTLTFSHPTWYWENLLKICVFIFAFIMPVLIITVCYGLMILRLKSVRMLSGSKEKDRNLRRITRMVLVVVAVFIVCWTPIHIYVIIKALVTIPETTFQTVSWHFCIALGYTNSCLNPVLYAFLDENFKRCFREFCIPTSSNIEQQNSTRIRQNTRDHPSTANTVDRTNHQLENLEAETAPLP

For `Clc1ccc(-n2c[n+]3ccc4c5ccccc5[nH]c4c3c2-c2ccccc2Cl)cc1.[Cl-]` [8aec, 1-(2-Chlorophenyl)-2-(4-chlorophenyl)-2,11-dihydroimidazo[1′,5′:1,2]pyrido[3,4-b]indol-4-ium chloride], the IC50 against MOR was 0.501 µM; against DOR, above 10 µM; at human KOR [1] (setting [4]) it was 0.00794 µM; at human KOR [1] (setting [5]), 0.00794 µM; on human KOR [1] (setting [6]) it was below 0.0316 µM. Besides, at human KOR [1], the “G-Protein Bias factor (IC50 -Glosensor/- EC50 - Tango)” value (shortened to “G-Protein Bias factor”) is 1.23. In addition, the EC50 on human KOR [2] is 0.135 µM.

As for `Clc1ccc(-c2c3c4[nH]c5ccccc5c4cc[n+]3cn2-c2ccc(Cl)cc2)cc1.[Cl-]` [8adc, 1,2-Bis(4-chlorophenyl)-2,11-dihydrolmidazo[1′,5′:1,2]pyrido[3,4-b]indol-4-ium chloride], the IC50 was above 10 µM at MOR; above 10 µM against DOR; 0.000501 µM at human KOR [1] (setting [4]); 0.00158 µM on human KOR [1] (setting [5]); below 0.0316 µM at human KOR [1] (setting [6]). Moreover, the “G-Protein Bias factor” value on human KOR [1] is listed as 3.28. The EC50 on human KOR [2] was 0.955 µM.

For the compound “2-(4-Fluorophenyl)-1-(4-methoxyphenyl)-2,11-dihydroimidazo[1′,5′:1,2]pyrido[3,4-b]indol-4-ium [8aod]”, at MOR, the “GloSensor Assay (Log IC50) MOR” value is above −5. In addition, the “GloSensor Assay (Log IC50) DOR” value at DOR is above −5. Also, the “G-Protein Bias factor” value at human KOR [1] worked out at 1.68. The “GloSensor Assay (pIC50)” value on human KOR [1] (Table 2, KOR) stood at 7.9. Also, the “GloSensor Assay (Log IC50) KOR” value on human KOR [1] (given as Log IC50 (negative values), agonist activity, inhibition of FSK-stimulated cAMP) is on record as −7.9. Further, the “B-arrestin Tango Assay (pEC50)” value at human KOR [2] worked out at 6.22.

Regarding `Clc1ccc(-c2c3c4[nH]c5ccccc5c4cc[n+]3cn2-c2ccc(Br)cc2)cc1.[Cl-]` [8adb, 2-(4-Bromophenyl)-1-(4-chlorophenyl)-2,11-dihydroimidazo[1′,5′:1,2]pyrido[3,4-b]indol-4-ium chloride], the IC50 at MOR was above 10 µM; at DOR, above 10 µM; on human KOR [1] (setting [4]), 0.02 µM; on human KOR [1] (setting [5]), 0.02 µM; on human KOR [1] (setting [6]) it was below 0.0316 µM. The “G-Protein Bias factor” value at human KOR [1] was 1.44. Moreover, the EC50 at human KOR [2] is 0.55 µM.

Consider `Fc1ccc(-n2c[n+]3ccc4c5ccccc5[nH]c4c3c2-c2ccccc2Br)cc1.[Cl-]` [8acd, 1-(2-Bromophenyl)-2-(4-fluorophenyl)-2,11-dihydroimidazo[1′,5′:1,2]pyrido[3,4-b]indol-4-ium chloride], for which the IC50 at MOR was above 10 µM; against DOR, above 10 µM; on human KOR [1] (setting [4]), 0.00158 µM; on human KOR [1] (setting [5]), 0.00158 µM; at human KOR [1] (setting [6]), below 0.0316 µM. For the same compound, on human KOR [1], the “G-Protein Bias factor” value is recorded as 3. Also, the EC50 on human KOR [2] is 1.58 µM.

For `Brc1ccc(-n2c[n+]3ccc4c5ccccc5[nH]c4c3c2-c2ccccc2Br)cc1.[Cl-]` [8acb, 1-(2-Bromophenyl)-2-(4-bromophenyl)-2,11-dihydroimidazo[1′,5′:1,2]pyrido[3,4-b]indol-4-ium chloride], the IC50 at MOR is above 10 µM; at DOR, above 10 µM; at human KOR [1] (setting [4]), 0.000115 µM; on human KOR [1] (setting [5]), 0.00251 µM; at human KOR [1] (setting [6]), below 0.0316 µM. In addition, the “G-Protein Bias factor” value on human KOR [1] came to 3.6. Moreover, on human KOR [2], the EC50 is 0.457 µM.

On to `Fc1ccc(-n2c[n+]3ccc4c5ccccc5[nH]c4c3c2-c2ccccc2Cl)cc1.[Cl-]` [8aed, 1-(2-Chlorophenyl)-2-(4-fluorophenyl)-2,11-dihydroimidazo[1′,5′:1,2]pyrido[3,4-b]indol-4-ium chloride], for which the IC50 against MOR is above 10 µM; against DOR, above 10 µM; at human KOR [1] (setting [4]), 0.01 µM; at human KOR [1] (setting [5]), 0.01 µM; at human KOR [1] (setting [6]), below 0.0316 µM. The “G-Protein Bias factor” value on human KOR [1] is 1.06. The EC50 on human KOR [2] is 0.115 µM.

With `Clc1ccc(-n2c[n+]3ccc4c5ccccc5[nH]c4c3c2-c2ccccc2Br)cc1.[Cl-]` [8acc, 1-(2-Bromophenyl)-2-(4-chlorophenyl)-2,11-dihydrolmidazo[1′,5′:1,2]pyrido[3,4-b]indol-4-ium], the IC50 at MOR was 2 µM; against DOR, 3.98 µM; on human KOR [1] (setting [4]) it was 0.000589 µM; at human KOR [1] (setting [5]), 0.00158 µM; at human KOR [1] (setting [6]) it was below 0.0316 µM. The “G-Protein Bias factor” value on human KOR [1] turned out to be 2.89. Further, on human KOR [2], the EC50 was 0.457 µM.

Turning to `Clc1ccc(-n2c[n+]3ccc4c5ccccc5[nH]c4c3c2-c2ccc(Br)cc2)cc1.[Cl-]` [8abc, 1-(4-Bromophenyl)-2-(4-chlorophenyl)-2,11-dihydromidazo[1′,5′:1,2]pyrido[3,4-b]indol-4-ium chloride], the IC50 is above 10 µM against MOR; above 10 µM at DOR; 0.00112 µM on human KOR [1] (setting [4]); 0.000631 µM at human KOR [1] (setting [5]); below 0.0316 µM on human KOR [1] (setting [6]). Besides, the “G-Protein Bias factor” value on human KOR [1] was 2.35. The EC50 on human KOR [2] was 0.251 µM.

`Fc1ccc(-n2c[n+]3ccc4c5ccccc5[nH]c4c3c2-c2ccc(Cl)cc2)cc1.[Cl-]` [8add, 1-(4-Chlorophenyl)-2-(4-fluorophenyl)-2,11-dihydroimidazo[1′,5′:1,2]pyrido[3,4-b]indol-4-ium chloride]: the IC50 on MOR was above 10 µM; against DOR it was above 10 µM; at human KOR [1] (setting [4]) it was 0.00294 µM; on human KOR [1] (setting [5]), 0.00398 µM; at human KOR [1] (setting [6]) it was below 0.0316 µM. Besides, at human KOR [1], the “G-Protein Bias factor” value is 2.67. In addition, the EC50 at human KOR [2] is 1.38 µM.

Consider `Brc1ccc(-c2c3c4[nH]c5ccccc5c4cc[n+]3cn2-c2cccc(Br)c2)cc1.[Cl-]` [8abe, 2-(3-Bromophenyl)-1-(4-bromophenyl)-2,11-dihydroimidazo[1′,5′:1,2]pyrido[3,4-b]indol-4-ium chloride], for which the IC50 is above 10 µM at MOR; above 10 µM at DOR; 0.0129 µM at human KOR [1] (setting [4]); 0.00126 µM on human KOR [1] (setting [5]); below 0.0316 µM on human KOR [1] (setting [6]). Moreover, the “G-Protein Bias factor” value on human KOR [1] is reported as 1.72. On human KOR [2], the EC50 is 0.676 µM.

Turning to `Cc1ccc(-c2c3c4[nH]c5ccccc5c4cc[n+]3cn2-c2ccc(F)cc2)cc1.[Cl-]` [8akd, 2-(4-Fluorophenyl)-1-(p-tolyl)-2,11-dihydroimidazo[1′,5′:1,2]pyrido[3,4-b]indol-4-ium chloride], the IC50 against MOR was above 10 µM; against DOR it was above 10 µM; on human KOR [1] (setting [4]) it was 0.000641 µM; at human KOR [1] (setting [5]), 0.00158 µM; at human KOR [1] (setting [6]) it was below 0.0316 µM. Further, the “G-Protein Bias factor” value at human KOR [1] is given as 3.15. The EC50 at human KOR [2] was 0.916 µM.

As for `Fc1ccc(-n2c[n+]3c4ccccc4c4c5ccccc5[nH]c4c3c2-c2ccccc2)cc1` [12ad, 2-(4-Fluorophenyl)-1-phenyl-2,13-dihydroimidazo[1,5-a]indolo[2,3-c]quinolin-4-ium chloride], the IC50 at MOR, on DOR and on human KOR [1] (setting [5]) was above 10 µM in each case.

As for `Brc1ccc(-c2c3c4[nH]c5ccccc5c4cc[n+]3cn2-c2ccccc2)cc1` [8aba, 1-(4-Bromophenyl)-2-phenyl-2,11-dihydroimidazo[1′,5′:1,2]pyrido[3,4-b]indol-4-ium chloride], the values for the IC50 against MOR, on DOR and on human KOR [1] (setting [5]) were above 10 µM, above 10 µM and 0.0708 µM, respectively.

In the case of `Fc1cccc(-n2c[n+]3ccc4c5ccccc5[nH]c4c3c2-c2ccc(Br)cc2)c1` [8abi, 1-(4-Bromophenyl)-2-(3-fluorophenyl)-2,11-dihydroimidazo[1′,5′:1,2]pyrido[3,4-b]indol-4-ium chloride], the IC50 on MOR, against DOR and at human KOR [1] (setting [5]) was above 10 µM each time.

On to `Fc1cccc(-n2c[n+]3ccc4c5ccccc5[nH]c4c3c2-c2ccccc2Br)c1` [8aci, 1-(2-Bromophenyl)-2-(3-fluorophenyl)-2,11-dihydroimidazo[1′,5′:1,2]pyrido[3,4-b]indol-4-ium], for which the IC50 on MOR was above 10 µM; against DOR, above 10 µM; on human KOR [1] (setting [5]), 0.0631 µM.

With `COc1ccc(Cn2c[n+]3ccc4c5ccccc5[nH]c4c3c2-c2ccc(Cl)cc2)cc1` [9abe, 1-(4-Chlorophenyl)-2-(4-methoxybenzyl)-2,11-dihydrolmidazo[1′,5′:1,2]pyrido[3,4-b]indol-4-ium chloride], the IC50 is above 10 µM against MOR, above 10 µM at DOR and 0.0759 µM on human KOR [1] (setting [5]).

As to `Fc1ccc(F)c(Cn2c[n+]3ccc4c5ccccc5[nH]c4c3c2-c2ccc(Br)cc2)c1` [9aaf], the IC50 against MOR, on DOR and on human KOR [1] (setting [5]) was above 10 µM throughout.

Consider `COc1ccc(Cn2c[n+]3ccc4c5ccccc5[nH]c4c3c2-c2ccc(Cl)cc2)cc1OC` [9abg, 1-(4-Chlorophenyl)-2-(3,4-dimethoxybenzyl)-2,11-dihydroimidazo[1′,5′:1,2]pyrido[3,4-b]indol-4-ium chloride], for which the values for the IC50 against MOR, against DOR and at human KOR [1] (setting [5]) were above 10 µM, above 10 µM and 0.955 µM, respectively.

As for `Fc1ccc(-n2c[n+]3ccc4c5ccccc5[nH]c4c3c2-c2ccccc2)cc1` [8aad, 2-(4-Fluorophenyl)-1-phenyl-2,11-dihydroimidazo[1′,5′:1,2]pyrido[3,4-b]indol-4-ium chloride], the IC50 on MOR was above 10 µM; on DOR, above 10 µM; at human KOR [1] (setting [5]), 0.269 µM.

Turning to `CNCC[C@H](Oc1cccc2ccccc12)c1cccs1` [duloxetine, reference compound], in assay [3], the “mechanical pain (mechanical hyperalgesia, Von frey hair test), chronic administration” value is “significantly improved” and the “thermal hyperalgesia (Hargreaves test), chronic administration” value is “significantly improved”.
